Data as given in US20210395313A1, “PEPTIDE PAC1 ANTAGONISTS” (AMGEN INC., priority 2017, published 2021).
Where a SMILES comes first, the peptide text is derived from it. Bridges are numbered along the chain shown (N, C = ends). Where no end group is shown, it is not given here. [ ]: non-standard residue; d: D form. SeMet = C[Se]CC[C@H](N)C(=O)O

How the values were obtained:
rat PAC1 receptor = target: T1, rat PAC1 receptor (Rattus norvegicus, UniProt P32215); assay: LANCE Ultra cAMP accumulation antagonist assay in RG-2 cells; format: cell-based;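 further: RG-2 rat glioma cells endogenously expressing PAC1, test peptide preincubated 30 min, then PAC1 agonist added at its EC80 for 15 min, cAMP accumulation read by LANCE Ultra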
T1 construct: SHSY-5Y (human neuroblastoma cell line) and RG-2 (rat glioma cell line) cells endogenously express human and rat PAC1 receptors, respectively; endogenous in cells; host or cells: RG-2 rat glioma cells
T1 sequence (P32215 20-523): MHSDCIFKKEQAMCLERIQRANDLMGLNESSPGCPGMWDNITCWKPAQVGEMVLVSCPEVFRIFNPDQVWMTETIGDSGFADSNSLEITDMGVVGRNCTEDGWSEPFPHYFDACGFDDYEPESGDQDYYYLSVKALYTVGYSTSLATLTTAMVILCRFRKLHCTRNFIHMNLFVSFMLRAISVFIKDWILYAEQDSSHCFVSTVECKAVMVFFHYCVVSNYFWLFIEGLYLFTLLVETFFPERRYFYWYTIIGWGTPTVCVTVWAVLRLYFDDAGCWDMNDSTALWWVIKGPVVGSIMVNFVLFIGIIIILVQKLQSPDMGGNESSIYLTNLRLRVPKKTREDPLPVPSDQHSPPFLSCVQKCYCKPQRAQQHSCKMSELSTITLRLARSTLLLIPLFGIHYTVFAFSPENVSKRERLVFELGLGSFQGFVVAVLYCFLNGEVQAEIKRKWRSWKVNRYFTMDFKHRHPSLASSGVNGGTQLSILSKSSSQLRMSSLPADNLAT
Description: (§1) In order to determine the potency of peptide antagonists at the PAC1 receptor, functional cAMP accumulation assays using LANCE Ultra cAMP assay kit to measure the agonist and antagonist activity of PAC1 peptides were used. SHSY-5Y (human neuroblastoma cell line) and RG-2 (rat glioma cell line) cells endogenously express human and rat PAC1 receptors, respectively. Agonist activity of PAC1 peptides was tested by incubating with SHSY-5Y at 2,000 cells per well or RG-2 at 5,000 cells per well for 15 minutes at room temperature. PAC1 receptor agonist PACAP38 or maxadilan was included as a positive control. The reaction was stopped by adding detection mixture, europium (Eu) chelate-labeled cAMP tracer and cAMP-specific monoclonal antibodies labeled with the ULight™ dye, to all wells followed by a 60-minute incubation at room temperature. The assay plates were then read on an EnVision instrument at an emission wavelength of 665 and 615 nm and data were analyzed using Genedata Screener or GraphPad Prism software. A similar procedure was used in the antagonist assays by using a fixed concentration of PAC1 agonist. The concentrations of agonists were chosen based on their ECK) values at PAC1 receptors in SHSY-5Y or RG-2 cells. SHSY-5Y or RG-2 cells were added into 96-well half-area white plates. Serially diluted PAC1 peptides at ten concentrations were added and incubated for 30 minutes at room temperature. PAC1 agonist at EC80 concentration was then added and further incubated for 15 minutes at room temperature. The reaction was stopped by adding detection mixture to all wells followed by a 60-minute incubation at room temperature. The assay plates were read and analyzed the same way as that of agonist assay. Cells, agonists, and PAC1 peptides were prepared in freshly made assay buffer (F-12, 0.5 mM IBMX, 0.1 or 0.4% BSA (pH 7.4)). Detection mixture was made by mixing a 1/50 dilution of the Eu-cAMP tracer stock solution in cAMP Detection Buffer and a 1/150 dilution of the ULight-anti-cAMP stock solution in cAMP Detection Buffer. Europium (Eu) chelate-labeled cAMP tracer, cAMP-specific monoclonal antibodies labeled with the ULight™ dye, BSA, and detection buffer were provided in LANCE Ultra cAMP Kit from PerkinElmer

human PAC1 receptor = target: T2, human PAC1 receptor (Homo sapiens, UniProt P41586); assay: LANCE Ultra cAMP accumulation antagonist assay in SHSY-5Y cells; format: cell-based;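 further: inhibition of cAMP accumulation evoked by PAC1 agonist at its EC80 in SHSY-5Y cells endogenously expressing receptor, 30 min preincubation then 15 min agonist, TR-FRET readout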
T2 construct: SHSY-5Y (human neuroblastoma cell line) and RG-2 (rat glioma cell line) cells endogenously express human and rat PAC1 receptors, respectively; endogenous in cells; host or cells: SHSY-5Y human neuroblastoma cells
T2 sequence (P41586 21-468): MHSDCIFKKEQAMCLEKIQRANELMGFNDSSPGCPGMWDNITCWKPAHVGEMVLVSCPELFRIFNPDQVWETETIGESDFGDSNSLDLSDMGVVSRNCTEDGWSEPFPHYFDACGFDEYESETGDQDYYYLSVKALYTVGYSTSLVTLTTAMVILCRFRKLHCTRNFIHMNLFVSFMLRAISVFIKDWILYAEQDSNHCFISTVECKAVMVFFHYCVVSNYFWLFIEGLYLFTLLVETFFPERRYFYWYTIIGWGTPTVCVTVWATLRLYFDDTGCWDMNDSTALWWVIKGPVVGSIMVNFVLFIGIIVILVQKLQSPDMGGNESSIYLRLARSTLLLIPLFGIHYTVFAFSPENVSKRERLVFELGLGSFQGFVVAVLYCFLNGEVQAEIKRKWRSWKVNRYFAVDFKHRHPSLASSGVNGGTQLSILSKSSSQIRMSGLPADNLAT
Description: as §1

| Molecule | IC50 (rat PAC1 receptor) [nM] | IC50 (human PAC1 receptor) [nM] |
| --- | --- | --- |
| CC[C@H](C)[C@H](NC(=O)[C@H](C)NC(=O)[C@H](CCCCN)NC(=O)[C@H](CCCNC(=N)N)NC(=O)[C@H](Cc1ccccc1)NC(=O)[C@H](CCC(N)=O)NC(=O)[C@@H]1CSSC[C@H](N)C(=O)N[C@@H](CC(=O)O)C(=O)N[C@@H](C)C(=O)N[C@@H]([C@@H](C)O)C(=O)N1)C(=O)N[C@@H](CC(=O)O)C(=O)N[C@@H](CC(=O)O)C(=O)N[C@H]1CSSC[C@@H](C(=O)N[C@@H](CCSC)C(=O)N[C@@H](CCCCN)C(=O)N[C@@H](CCC(N)=O)C(=O)N[C@@H](CCCCN)C(=O)N[C@@H](CCCCN)C(=O)N[C@@H](CCCCN)C(=O)N[C@@H](CCC(=O)O)C(=O)N[C@@H](Cc2ccccc2)C(=O)N[C@@H](CCCCN)C(=O)N[C@@H](C)C(=O)NCC(=O)N[C@@H](Cc2c[nH]cn2)C(=O)O)NC(=O)[C@H](C)NC(=O)[C@H](CCCCN)NC(=O)[C@H](Cc2ccccc2)NC(=O)[C@H](C(C)C)NC(=O)[C@H](CO)NC(=O)[C@H](CO)NC(=O)[C@H](Cc2c[nH]cn2)NC(=O)[C@H](Cc2c[nH]cn2)NC(=O)[C@H](C)NC(=O)[C@H](CCC(N)=O)NC(=O)[C@H](CCCCN)NC(=O)[C@H](C(C)C)NC1=O [compound 19] (H-CDATCQFRKAIDDCVKQAHHSSVFKACMKQKKKEFKAGH-OH; disulfide 1-5, 14-27) | 0.01 to 1 | 1 to 100 |
| CDATCQFRKAIDDCYYYAMHSNVPGSVWKACMKQKKKEFKAG-NH2 (disulfide 1-5, 14-31) [compound 150] | 0.01 to 1 | 0.01 to 1 |
| CC[C@H](C)[C@H](NC(=O)[C@H](C)NC(=O)[C@H](CCCCN)NC(=O)[C@H](CCCNC(=N)N)NC(=O)[C@H](Cc1ccccc1)NC(=O)[C@H](CCC(N)=O)NC(=O)[C@@H]1CSSC[C@H](N)C(=O)N[C@@H](CC(=O)O)C(=O)N[C@@H](C)C(=O)N[C@@H]([C@@H](C)O)C(=O)N1)C(=O)N[C@@H](CC(=O)O)C(=O)N[C@@H](CC(=O)O)C(=O)N[C@H]1CSSC[C@@H](C(=O)N[C@@H](CCSC)C(=O)N[C@@H](CCCCN)C(=O)N[C@@H](CCC(N)=O)C(=O)N[C@@H](CCCCN)C(=O)N[C@@H](CCCCN)C(=O)N[C@@H](CCCCN)C(=O)N[C@@H](CCC(=O)O)C(=O)N[C@@H](Cc2c[nH]c3ccccc23)C(=O)N[C@@H](CCCCN)C(=O)N[C@@H](C)C(=O)NCC(N)=O)NC(=O)[C@H](C)NC(=O)[C@H](CCCCN)NC(=O)[C@H](Cc2ccccc2)NC(=O)[C@H](C(C)C)NC(=O)[C@H](CO)NC(=O)[C@H](CO)NC(=O)[C@H](Cc2c[nH]cn2)NC(=O)[C@H](Cc2c[nH]cn2)NC(=O)[C@H](C)NC(=O)[C@H](CCC(N)=O)NC(=O)[C@H](CCCNC(=N)N)NC(=O)[C@H](CC(=O)O)NC1=O [compound 16] (H-CDATCQFRKAIDDCDRQAHHSSVFKACMKQKKKEWKAG-NH2; disulfide 1-5, 14-27) | 0.01 to 1 | 0.01 to 1 |
| CDATCQFRKAIDDCDRQAHHSNVPGSVFKACMKQKKKEFKAG-NH2 (disulfide 1-5, 14-31) [compound 168] | 0.01 to 1 | 0.01 to 1 |
| CDATCQFRKAIDDCAGRASHANVPGSVFKACMKQKKKEWKAGH-NH2 (disulfide 1-5, 14-31) [compound 425] | 0.01 to 1 | 0.01 to 1 |
| CC[C@H](C)[C@H](NC(=O)[C@H](C)NC(=O)[C@H](CCCCN)NC(=O)[C@H](CCCNC(=N)N)NC(=O)[C@H](Cc1ccccc1)NC(=O)[C@H](CCC(N)=O)NC(=O)[C@@H]1CSSC[C@H](N)C(=O)N[C@@H](CC(=O)O)C(=O)N[C@@H](C)C(=O)N[C@@H]([C@@H](C)O)C(=O)N1)C(=O)N[C@@H](CC(=O)O)C(=O)N[C@@H](CC(=O)O)C(=O)N[C@H]1CSSC[C@@H](C(=O)N[C@@H](CCSC)C(=O)N[C@@H](CCCCN)C(=O)N[C@@H](CCC(N)=O)C(=O)N[C@@H](CCCCN)C(=O)N[C@@H](CCCCN)C(=O)N[C@@H](CCCCN)C(=O)N[C@@H](CCC(=O)O)C(=O)N[C@@H](Cc2ccccc2)C(=O)N[C@@H](CCCCN)C(N)=O)NC(=O)[C@H](CCC(=O)O)NC(=O)[C@H](CCCCN)NC(=O)[C@H](Cc2ccccc2)NC(=O)[C@H](CO)NC(=O)[C@H](CC(N)=O)NC(=O)[C@H](CO)NC(=O)[C@H](Cc2c[nH]cn2)NC(=O)[C@H](Cc2c[nH]cn2)NC(=O)[C@H](C)NC(=O)[C@H](CCC(N)=O)NC(=O)[C@H](CCCCN)NC(=O)[C@H](CCC(N)=O)NC1=O [compound 224] (H-CDATCQFRKAIDDCQKQAHHSNSFKECMKQKKKEFK-NH2; disulfide 1-5, 14-27) | 1 to 100 | 0.01 to 1 |
| CC[C@H](C)[C@H](NC(=O)[C@H](C)NC(=O)[C@H](CCCCN)NC(=O)[C@H](CCCNC(=N)N)NC(=O)[C@H](Cc1ccccc1)NC(=O)[C@H](CCC(N)=O)NC(=O)[C@@H]1CSSC[C@H](N)C(=O)N[C@@H](CC(=O)O)C(=O)N[C@@H](C)C(=O)N[C@@H]([C@@H](C)O)C(=O)N1)C(=O)N[C@@H](CC(=O)O)C(=O)N[C@@H](CC(=O)O)C(=O)N[C@H]1CSSC[C@@H](C(=O)N[C@@H](CC[Se]C)C(=O)N[C@@H](CCCCN)C(=O)N[C@@H](CCC(N)=O)C(=O)N[C@@H](CCCCN)C(=O)N[C@@H](CCCCN)C(=O)N[C@@H](CCCCN)C(=O)N[C@@H](CCC(=O)O)C(=O)N[C@@H](Cc2c[nH]c3ccccc23)C(=O)N[C@@H](CCCCN)C(=O)N[C@@H](C)C(=O)NCC(N)=O)NC(=O)[C@H](C)NC(=O)[C@H](CCCCN)NC(=O)[C@H](Cc2ccccc2)NC(=O)[C@H](C(C)C)NC(=O)[C@H](CO)NC(=O)[C@H](CO)NC(=O)[C@H](Cc2c[nH]cn2)NC(=O)[C@H](Cc2ccc(O)cc2)NC(=O)[C@H](C)NC(=O)[C@H](CCC(N)=O)NC(=O)[C@H](CCCNC(=N)N)NC(=O)[C@H](C)NC1=O [compound 6] (H-CDATCQFRKAIDDCARQAYHSSVFKAC[SeMet]KQKKKEWKAG-NH2; disulfide 1-5, 14-27) | 0.01 to 1 | 0.01 to 1 |
| CDATCQFRKAIDDCVKQAHHSNVPGSVFKACMKQKKKEFKAGH (disulfide 1-5, 14-31) [SEQ ID NO 94] | 0.01 to 1 | 0.01 to 1 |
| CSCC[C@H](NC(=O)[C@@H]1CSSC[C@H](NC(=O)[C@H](C)NC(=O)[C@@H](NC(=O)[C@H](CC(C)C)NC(=O)CNC(=O)[C@H](CCCCN)NC(=O)[C@H](CCCNC(=N)N)NC(=O)[C@H](Cc2ccc(O)cc2)NC(=O)[C@H](CCC(N)=O)NC(=O)[C@@H]2CSSC[C@H](N)C(=O)N[C@@H](CC(=O)O)C(=O)N[C@@H](C)C(=O)N[C@@H]([C@@H](C)O)C(=O)N2)C(C)C)C(=O)N[C@@H](C)C(=O)N[C@@H](CCCNC(=N)N)C(=O)N[C@@H](CCC(N)=O)C(=O)N[C@@H](C)C(=O)N[C@@H](Cc2ccc(O)cc2)C(=O)N[C@@H](Cc2c[nH]cn2)C(=O)N[C@@H](CO)C(=O)N[C@@H](CO)C(=O)N[C@@H](C(C)C)C(=O)N[C@@H](Cc2ccccc2)C(=O)N[C@@H](CCCCN)C(=O)N[C@@H](C)C(=O)N1)C(=O)N[C@@H](CCCCN)C(=O)N[C@@H](CCC(N)=O)C(=O)N[C@@H](CCCCN)C(=O)N[C@@H](CCCCN)C(=O)N[C@@H](CCCCN)C(=O)N[C@@H](CCC(=O)O)C(=O)N[C@@H](Cc1c[nH]c2ccccc12)C(N)=O [compound 5] (H-CDATCQYRKGLVACARQAYHSSVFKACMKQKKKEW-NH2; disulfide 1-5, 14-27) | 1 to 100 | 1 to 100 |
| CC[C@H](C)[C@H](NC(=O)[C@H](C)NC(=O)[C@H](CCCCN)NC(=O)[C@H](CCCNC(=N)N)NC(=O)[C@H](Cc1ccccc1)NC(=O)[C@H](CCC(N)=O)NC(=O)[C@@H]1CSSC[C@H](N)C(=O)N[C@@H](CC(=O)O)C(=O)N[C@@H](C)C(=O)N[C@@H]([C@@H](C)O)C(=O)N1)C(=O)N[C@@H](CC(=O)O)C(=O)N[C@@H](CC(=O)O)C(=O)N[C@H]1CSSC[C@@H](C(=O)N[C@@H](CCSC)C(=O)N[C@@H](CCCCN)C(=O)N[C@@H](CCC(N)=O)C(=O)N[C@@H](CCCCN)C(=O)N[C@@H](CCCCN)C(=O)N[C@@H](CCCCN)C(=O)N[C@@H](CCC(=O)O)C(=O)N[C@@H](Cc2ccccc2)C(=O)N[C@@H](CCCCN)C(=O)N[C@@H](C)C(=O)NCC(=O)N[C@@H](Cc2ccc(O)cc2)C(=O)O)NC(=O)[C@H](C)NC(=O)[C@H](CCCCN)NC(=O)[C@H](Cc2ccccc2)NC(=O)[C@H](C(C)C)NC(=O)[C@H](CO)NC(=O)[C@H](CO)NC(=O)[C@H](Cc2c[nH]cn2)NC(=O)[C@H](Cc2ccc(O)cc2)NC(=O)[C@H](C)NC(=O)[C@H](CCC(N)=O)NC(=O)[C@H](CCCCN)NC(=O)[C@H](C)NC1=O [compound 30] (H-CDATCQFRKAIDDCAKQAYHSSVFKACMKQKKKEFKAGY-OH; disulfide 1-5, 14-27) | 0.01 to 1 | 0.01 to 1 |
| CDATCQFRKAIDDCVRQAHHSNVPGSVFKACMKQKKKEWKAH (disulfide 1-5, 14-31) [compound 99] | 0.01 to 1 | 0.01 to 1 |
| CDATCQFRKAIDDCVKQAHHSNVPGSVFKACMKQKKKEFKAGY (disulfide 1-5, 14-31) [compound 48] | 0.01 to 1 | 0.01 to 1 |
